Data on 17 compounds can be found in patent US12428378B2, “Methods and materials for increasing level of phosphorylated AMPK protein” (University of Pittsburgh—Of the Commonwealth System of …, priority 2019, dated 2025).

SMILES strings stand for the structures. “And” between values parts separate entries of the source, which are not always exact repeats. Equal entries are not always repeated. Where two headings read alike, the source gives them in different places.

Data set [1] relates to methicillin resistant Staphylococcus aureus (strain ATCC 33591). In words: Antimicrobial efficacy against MRSA lung infection in neutropenic BALB/c mice. It is filed as in vivo. The conditions noted are these: 25 mg/kg orally once a day, days -4 to 0; lungs 24 hours after inoculation; p<0.01 compared to vehicle. The method, then:
Groups of 5-10 female BALB/c mice weighing 20±2 g were used in this study. Animals were rendered immune suppressed by treatment with 250 mg/kg of cyclophosphamide IP at 4 and 2 days before infection (Day −4 and −2). Vehicle 10% DMA (N,N-dimethylacetamide):40% PEG300:50% H2O) and/or test substances were administered on days −4, −3, −2, −1 and 0.
On day 0, immediately following the final dose, animals were inoculated intranasally (0.02 mL/lung) with 1-5×10^6 colony forming units (CFU)/mouse of MRSA (ATCC 33591) after being anaesthetized by etomidate (20 mg/kg dose, IV). In addition, following the final dose, blood was collected at 0, 0.5 h, 1 h, 2 h, 4 h and 24 h from three animals of each group, via facial veins. Terminal blood samples were taken by cardiac puncture. Blood samples were drawn into K2EDTA anti-coagulant coated mini collection tubes. The blood was collected from group 1 after sacrifice as the blank for PK analysis. Samples were stored on ice for no more than one hour then centrifuged at 2500×g for 15 min at 4° C. Plasma (˜50 μL) was stored at −80° C. until analysis.
At 24 hours after inoculation, the animals were humanely euthanized with CO2 asphyxiation, and the lung tissue was harvested from each of the test animals. The tissues were homogenized in 1 mL of PBS. […]

Data set [2] in a line: Plasma exposure and PK of compound 63 in mouse plasma (HPLC-MS/MS). It is filed as in vivo.
The test system of data set [3] is pAMPK. In words: pAMPK immunostaining chemiluminescence assay in Beas2B cells. It is filed as cell-based. The conditions noted are these: Homo sapiens, BEAS-2B, 18 h, DMEM no glucose media, compounds 3-34, 36-44, 47-60 tested as HCl salts, read-out: efficacy (minimal compound concentration needed to increase pAMPK by 30%).

The term AUC(0-inf) denotes the area under the concentration-time curve extrapolated to infinity. One may read the AUC(0-t) as the area under the concentration-time curve up to a stated or last time point. A higher AUC(0-t) goes with more exposure. As usually defined, the Cmax is the maximum level reached in the sampled fluid or tissue. A word on the Tmax: it is the time from dosing to the highest level. As to `Cc1ccccc1CN(CCCOc1ccc(C(F)(F)F)cc1)Cc1cccnc1` [compound 63], the “clearance of MRSA from the lung (CFU)” value in data set [1] is listed as “cleared MRSA from the lung”. Moreover, the “Sample concentration, individual animals” value in data set [2] (25 mg/kg PO QD x 5, time 0 h, 25 mg/kg) is 3 ng/mL and 0 ng/mL (2×); in data set [2] (25 mg/kg PO QD x 5, time 0.5 h, 25 mg/kg) it was 180 ng/mL and 243 ng/mL and 390 ng/mL; in data set [2] (25 mg/kg PO QD x 5, time 1 h, 25 mg/kg), 95 ng/mL and 120 ng/mL; in data set [2] (25 mg/kg PO QD x 5, time 2 h, 25 mg/kg), 16 ng/mL and 36 ng/mL and 31 ng/mL; in data set [2] (25 mg/kg PO QD x 5, time 4 h, 25 mg/kg), 22 ng/mL and 38 ng/mL and 18 ng/mL; in data set [2] (25 mg/kg PO QD x 5, time 24 h, 25 mg/kg), 7 ng/mL and 0 ng/mL and 3 ng/mL. Further, the AUC(0-inf) in data set [2] (BALB/c, dose PO 25 mg/kg) turned out to be 622 ng·h/mL. In data set [2] (BALB/c, dose PO 25 mg/kg), this compound came in with an AUC(0-t) of 593 ng·h/mL. In data set [2] (BALB/c, dose PO 25 mg/kg), this compound gave a Cmax of 271 ng/mL. Besides, the Tmax in data set [2] (BALB/c, dose PO 25 mg/kg) amounted to 30 min. Further, the concentration at 0 h in data set [2] (BALB/c, mouse, plasma, po, 25 mg/kg, 25 mg/kg PO QD x 5, time 0 h, excluded from the PK calculation, read-out: Sample concentration, mean) is 1 ng/mL. In addition, the concentration at 0.5 h in data set [2] (BALB/c, mouse, plasma, po, 25 mg/kg, 25 mg/kg PO QD x 5, time 0.5 h, read-out: Sample concentration, mean) worked out at 271 ng/mL. In addition, the concentration at 1 h in data set [2] (BALB/c, mouse, plasma, po, 25 mg/kg, 25 mg/kg PO QD x 5, time 1 h, read-out: Sample concentration, individual animals) was found to be 184 ng/mL; in data set [2] (BALB/c, mouse, plasma, po, 25 mg/kg, 25 mg/kg PO QD x 5, time 1 h, read-out: Sample concentration, mean), 133 ng/mL. In data set [2] (BALB/c, mouse, plasma, po, 25 mg/kg, 25 mg/kg PO QD x 5, time 2 h, read-out: Sample concentration, mean), the concentration at 2 h was 28 ng/mL. Moreover, in data set [2] (BALB/c, mouse, plasma, po, 25 mg/kg, 25 mg/kg PO QD x 5, time 4 h, read-out: Sample concentration, mean), the concentration at 4 h turned out to be 26 ng/mL. In addition, in data set [2] (BALB/c, mouse, plasma, po, 25 mg/kg, 25 mg/kg PO QD x 5, time 24 h, read-out: Sample concentration, mean), the concentration at 24 h turned out to be 3 ng/mL. The same compound had an AUC/D in data set [2] (dose PO 25 mg/kg) of 25 kg·ng·h/mL/mg. The AUCExtr in data set [2] (dose PO 25 mg/kg) came out at 5%. In data set [2] (dose PO 25 mg/kg), this compound had an MTR of 4.96 h. Moreover, in data set [3], the EC (30% increase) is ≤ 1 µM.

For the compound `Cc1ccccc1CN(Cc1c[nH]nc1-c1ccccc1)CC(O)COc1ccc(C(F)(F)F)cc1` (centres unmarked) [compound 73], the EC (30% increase) in data set [3] fell in the range of 1 to 10 µM.

For `OC(COc1ccc(C(F)(F)F)cc1)CN(Cc1ccncc1)Cc1ccncc1` (centres unmarked) [compound 41], the EC (30% increase) in data set [3] fell in the range of 1 to 10 µM.

For `Cn1cncc1CN(Cc1ccccc1Cl)CC(O)COc1ccc(F)cc1F` (centres unmarked) [compound 147], the EC (30% increase) in data set [3] was > 10 µM.

In the case of `Cc1ccccc1CN(CC(O)COc1ccc(C(F)(F)F)cc1)C(C)c1nccn1C` (centres unmarked) [compound 162], the EC (30% increase) in data set [3] is > 10 µM.

Take `Cn1ccnc1C1c2ccccc2CCN1CCCOc1ccc(C(F)(F)F)cc1` (centres unmarked) [compound 199]: the EC (30% increase) in data set [3] is 1 to 10 µM.

Consider `Cc1ccccc1CN(Cc1cccnc1)CC(O)COc1ccc(C(F)(F)F)cn1` (centres unmarked) [compound 24], for which, in data set [3], the EC (30% increase) was > 10 µM.

`Cc1ccccc1CN(Cc1cccnc1)CC(C)(C)COc1cnc(C(F)(F)F)nc1` [compound 190]: the EC (30% increase) in data set [3] was 1 to 10 µM.

Consider `CC(C)(COc1cnc(C(F)(F)F)nc1)CN(Cc1cccnc1)Cc1ccccc1C(F)(F)F` [compound 196], for which the EC (30% increase) in data set [3] is 1 to 10 µM.

Regarding `OC(CNCC(c1ccccc1)c1ccccc1)COc1ccc(C(F)(F)F)cc1` (centres unmarked) [compound 14], the EC (30% increase) in data set [3] was > 10 µM.

`Cc1ccccc1CN(Cc1c[nH]cn1)CC(O)COc1ccc(C(F)(F)F)cc1` (centres unmarked) [compound 69]: in data set [3], the EC (30% increase) was ≤ 1 µM.

For the compound `Cc1ccccc1CN(CCc1ccccn1)CC(O)COc1ccc(C(F)(F)F)cc1` (centres unmarked) [compound 52], in data set [3], the EC (30% increase) lay in the range of 1 to 10 µM.

As for `Cc1ccccc1CN(CC(O)COc1ccc(C(F)(F)F)cc1)C(=O)c1cn[nH]c1` (centres unmarked) [compound 76], the EC (30% increase) in data set [3] is 1 to 10 µM.

In the case of `Cc1ccccc1CN(CC(O)COc1ccc(C(F)(F)F)cc1)C(C)c1cccnc1` (centres unmarked) [compound 118], the EC (30% increase) in data set [3] was > 10 µM.

`Cc1ccccc1CN(Cc1cccnc1)CC(C)(C)COc1ccc(C(F)(F)F)cc1` [compound 121]: the EC (30% increase) in data set [3] was ≤ 1 µM.

Consider `Cc1ccccc1CN(CCCOc1ccc(C(F)(F)F)cc1)Cc1ccnnc1` [compound 182], for which the EC (30% increase) in data set [3] was ≤ 1 µM.

For `Cc1ccccc1CN(Cc1cccnc1)CC(F)COc1ccc(C(F)(F)F)cc1` (centres unmarked) [compound 165], the EC (30% increase) in data set [3] was ≤ 1 µM.
